Earlier results as cited in patent US20240216546A1, “MODEL OPTIMIZED DRUG AND DRUG COMBINATIONS FOR TREATING CANCERS” (My Personal Therapeutics, priority 2021, published 2024).

Test system: non-small cell lung cancer
Details: erlotinib in combination with first line chemotherapy (carboplatin and paclitaxel)
[1] = patients with the KRAS mutation

C#Cc1cccc(Nc2ncnc3cc(OCCOC)c(OCCOC)cc23)c1 [erlotinib]
time-to-progression (group with wild-type KRAS): 12 months | overall survival [1]: four | time to progression [1]: three
